Laboratory results taken from ChEMBL document CHEMBL4507292 (2021).

Columns and labels:
[1] = target: Serine/threonine-protein kinase Nek1 (Homo sapiens) (UniProt Q96PY6); settings: Compound concentration 1000.0 nM
[2] = target: SRSF protein kinase 3 (Homo sapiens) (UniProt Q9UPE1); settings: Compound concentration 1000.0 nM
[3] = target: Ribosomal protein S6 kinase alpha-5 (Homo sapiens) (UniProt O75582); settings: Compound concentration 1000.0 nM
[4] = target: Platelet-derived growth factor receptor alpha (Homo sapiens) (UniProt P16234); settings: Compound concentration 1000.0 nM
[5] = system: Mast/stem cell growth factor receptor Kit (Homo sapiens), P10721 [V559D]; settings: Compound concentration 1000.0 nM
Mast/stem cell growth factor receptor Kit (Homo sapiens), P10721 [V559D], sequence (P10721 whole entry V559D): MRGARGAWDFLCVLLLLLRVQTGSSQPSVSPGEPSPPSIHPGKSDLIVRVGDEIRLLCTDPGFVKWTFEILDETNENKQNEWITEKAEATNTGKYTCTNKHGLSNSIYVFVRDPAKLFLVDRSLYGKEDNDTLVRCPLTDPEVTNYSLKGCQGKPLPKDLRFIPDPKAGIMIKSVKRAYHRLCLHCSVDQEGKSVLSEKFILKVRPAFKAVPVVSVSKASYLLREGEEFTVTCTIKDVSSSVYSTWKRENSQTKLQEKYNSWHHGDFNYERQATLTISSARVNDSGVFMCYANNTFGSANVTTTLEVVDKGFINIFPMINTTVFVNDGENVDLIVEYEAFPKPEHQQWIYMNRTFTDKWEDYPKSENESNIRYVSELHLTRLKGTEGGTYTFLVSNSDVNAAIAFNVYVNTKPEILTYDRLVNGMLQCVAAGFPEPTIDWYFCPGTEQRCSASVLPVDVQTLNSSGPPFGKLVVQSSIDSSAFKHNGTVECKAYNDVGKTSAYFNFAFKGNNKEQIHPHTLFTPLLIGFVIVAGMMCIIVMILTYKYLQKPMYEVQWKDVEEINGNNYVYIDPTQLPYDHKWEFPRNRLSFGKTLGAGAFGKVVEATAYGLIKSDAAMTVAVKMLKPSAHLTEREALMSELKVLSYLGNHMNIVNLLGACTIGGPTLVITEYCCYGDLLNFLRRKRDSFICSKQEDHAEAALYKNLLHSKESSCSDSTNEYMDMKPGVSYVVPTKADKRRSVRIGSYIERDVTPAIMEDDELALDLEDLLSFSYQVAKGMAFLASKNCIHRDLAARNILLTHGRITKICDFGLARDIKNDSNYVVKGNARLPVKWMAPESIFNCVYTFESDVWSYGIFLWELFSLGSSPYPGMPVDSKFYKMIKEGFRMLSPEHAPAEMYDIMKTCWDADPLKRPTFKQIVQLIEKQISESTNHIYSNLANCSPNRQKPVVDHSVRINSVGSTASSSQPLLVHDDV

[6] = target: Ephrin type-A receptor 5 (Homo sapiens) (UniProt P54756); settings: Compound concentration 1000.0 nM
[7] = target: Protein-tyrosine kinase 6 (Homo sapiens) (UniProt Q13882); settings: Compound concentration 1000.0 nM
[8] = target: Serine/threonine-protein kinase NIM1 (Homo sapiens) (UniProt Q8IY84); settings: Compound concentration 1000.0 nM
[9] = target: ALK tyrosine kinase receptor (Homo sapiens) (UniProt Q9UM73); settings: Compound concentration 1000.0 nM
[10] = target: Calcium/calmodulin-dependent protein kinase type 1D (Homo sapiens) (UniProt Q8IU85); settings: Compound concentration 1000.0 nM
[11] = target: Serine/threonine-protein kinase RIO3 (Homo sapiens) (UniProt O14730); settings: Compound concentration 1000.0 nM
[12] = target: Cyclin-dependent kinase 13 (Homo sapiens) (UniProt Q14004); settings: Compound concentration 1000.0 nM
[13] = target: 3-phosphoinositide-dependent protein kinase 1 (Homo sapiens) (UniProt O15530); settings: Compound concentration 1000.0 nM
[14] = target: Dual specificity protein kinase TTK (Homo sapiens) (UniProt P33981); settings: Compound concentration 1000.0 nM
[15] = target: Serine/threonine-protein kinase 36 (Homo sapiens) (UniProt Q9NRP7); settings: Compound concentration 1000.0 nM
[16] = target: Interferon-induced, double-stranded RNA-activated protein kinase (Homo sapiens) (UniProt P19525); settings: Compound concentration 1000.0 nM
[17] = target: Dual specificity mitogen-activated protein kinase kinase 2 (Homo sapiens) (UniProt P36507); settings: Compound concentration 1000.0 nM
Dual specificity mitogen-activated protein kinase kinase 2 (Homo sapiens), sequence (P36507 whole entry): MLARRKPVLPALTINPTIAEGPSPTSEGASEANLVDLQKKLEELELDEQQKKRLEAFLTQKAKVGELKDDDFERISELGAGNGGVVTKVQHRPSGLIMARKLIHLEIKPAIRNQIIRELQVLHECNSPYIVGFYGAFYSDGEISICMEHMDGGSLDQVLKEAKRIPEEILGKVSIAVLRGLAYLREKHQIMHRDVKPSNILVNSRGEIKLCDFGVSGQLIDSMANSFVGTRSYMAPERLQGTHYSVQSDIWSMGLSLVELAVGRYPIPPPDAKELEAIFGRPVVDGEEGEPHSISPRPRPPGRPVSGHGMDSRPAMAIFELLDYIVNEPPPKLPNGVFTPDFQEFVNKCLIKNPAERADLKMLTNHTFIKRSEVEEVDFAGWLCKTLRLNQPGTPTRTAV

[18] = system: Receptor-type tyrosine-protein kinase FLT3 (Homo sapiens), P36888 [K663Q]; settings: Compound concentration 1000.0 nM
[19] = system: Phosphatidylinositol 4,5-bisphosphate 3-kinase catalytic subunit alpha isoform (Homo sapiens), P42336 [E542K]; settings: Compound concentration 1000.0 nM
[20] = target: Phosphatidylinositol 4-kinase beta (Homo sapiens) (UniProt Q9UBF8); settings: Compound concentration 1000.0 nM
[21] = target: Serine/threonine-protein kinase PAK 4 (Homo sapiens) (UniProt O96013); settings: Compound concentration 1000.0 nM
[22] = target: Beta-adrenergic receptor kinase 1 (Homo sapiens) (UniProt P25098); settings: Compound concentration 1000.0 nM
[23] = target: Mitogen-activated protein kinase kinase kinase 2 (Homo sapiens) (UniProt Q9Y2U5); settings: Compound concentration 1000.0 nM
[24] = target: Tyrosine-protein kinase CSK (Homo sapiens) (UniProt P41240); settings: Compound concentration 1000.0 nM
[25] = target: Ephrin type-A receptor 2 (Homo sapiens) (UniProt P29317); settings: Compound concentration 1000.0 nM
D(1A) dopamine receptor = D(1A) dopamine receptor (Homo sapiens, UniProt P21728); assay: GPCRScan assay: inhibition of D1; design: radioligand conc. used [nm] 0.6 – 1.3, parental cells HEKT
[26] = target: Ephrin type-A receptor 1 (Homo sapiens) (UniProt P21709); settings: Compound concentration 1000.0 nM
Ephrin type-A receptor 1 (Homo sapiens), sequence (P21709 whole entry): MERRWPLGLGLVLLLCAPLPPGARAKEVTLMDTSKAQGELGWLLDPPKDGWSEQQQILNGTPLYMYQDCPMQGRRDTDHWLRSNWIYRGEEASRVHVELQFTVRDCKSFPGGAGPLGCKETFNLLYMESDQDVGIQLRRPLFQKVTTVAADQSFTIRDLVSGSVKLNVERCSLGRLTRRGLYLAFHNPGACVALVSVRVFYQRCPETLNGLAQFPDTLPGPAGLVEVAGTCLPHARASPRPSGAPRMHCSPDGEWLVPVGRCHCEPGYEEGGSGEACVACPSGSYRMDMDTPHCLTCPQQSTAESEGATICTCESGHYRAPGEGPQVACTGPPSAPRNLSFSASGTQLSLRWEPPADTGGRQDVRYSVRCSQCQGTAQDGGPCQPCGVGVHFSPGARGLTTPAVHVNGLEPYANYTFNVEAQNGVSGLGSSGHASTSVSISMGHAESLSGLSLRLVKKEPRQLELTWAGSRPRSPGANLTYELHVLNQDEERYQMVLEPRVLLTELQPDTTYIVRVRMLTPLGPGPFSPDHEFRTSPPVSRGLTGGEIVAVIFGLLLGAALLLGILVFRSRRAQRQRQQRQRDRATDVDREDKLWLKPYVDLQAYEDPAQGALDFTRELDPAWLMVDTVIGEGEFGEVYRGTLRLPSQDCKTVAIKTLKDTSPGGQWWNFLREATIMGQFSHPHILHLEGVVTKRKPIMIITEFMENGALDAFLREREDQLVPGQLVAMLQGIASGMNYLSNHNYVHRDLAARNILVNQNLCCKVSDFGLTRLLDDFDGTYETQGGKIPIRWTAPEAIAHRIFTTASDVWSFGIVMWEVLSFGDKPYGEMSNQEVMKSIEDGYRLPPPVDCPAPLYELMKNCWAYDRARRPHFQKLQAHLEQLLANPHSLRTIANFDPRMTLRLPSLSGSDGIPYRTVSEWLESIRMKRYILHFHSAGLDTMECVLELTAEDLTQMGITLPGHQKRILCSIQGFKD

[27] = target: Cytoplasmic tyrosine-protein kinase BMX (Homo sapiens) (UniProt P51813); settings: Compound concentration 1000.0 nM
[28] = target: Mitogen-activated protein kinase kinase kinase 12 (Homo sapiens) (UniProt Q12852); settings: Compound concentration 1000.0 nM
Mitogen-activated protein kinase kinase kinase 12 (Homo sapiens), sequence (Q12852 whole entry): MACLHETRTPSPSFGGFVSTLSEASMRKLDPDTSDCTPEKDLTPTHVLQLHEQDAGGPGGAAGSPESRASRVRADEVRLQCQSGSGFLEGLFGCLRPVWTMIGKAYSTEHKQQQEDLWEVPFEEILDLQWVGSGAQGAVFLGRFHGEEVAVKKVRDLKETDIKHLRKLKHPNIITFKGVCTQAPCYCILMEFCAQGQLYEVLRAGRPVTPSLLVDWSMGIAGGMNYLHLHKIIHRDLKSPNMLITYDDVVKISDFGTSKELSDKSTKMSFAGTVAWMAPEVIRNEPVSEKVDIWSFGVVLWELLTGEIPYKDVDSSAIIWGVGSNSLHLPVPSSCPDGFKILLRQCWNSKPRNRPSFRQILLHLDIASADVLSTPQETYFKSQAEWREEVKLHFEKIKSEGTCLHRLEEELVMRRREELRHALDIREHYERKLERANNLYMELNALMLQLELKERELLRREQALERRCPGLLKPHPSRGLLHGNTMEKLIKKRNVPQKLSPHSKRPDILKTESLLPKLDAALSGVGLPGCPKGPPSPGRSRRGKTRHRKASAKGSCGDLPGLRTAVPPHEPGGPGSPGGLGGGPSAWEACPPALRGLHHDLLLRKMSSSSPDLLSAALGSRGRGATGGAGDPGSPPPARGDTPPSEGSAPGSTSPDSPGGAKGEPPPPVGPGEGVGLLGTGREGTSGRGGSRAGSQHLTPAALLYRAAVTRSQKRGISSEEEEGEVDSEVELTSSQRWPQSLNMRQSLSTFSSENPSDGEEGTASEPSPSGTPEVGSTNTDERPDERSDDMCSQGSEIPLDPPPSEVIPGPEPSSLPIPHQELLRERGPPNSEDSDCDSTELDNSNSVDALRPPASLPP

[29] = target: Epidermal growth factor receptor (Homo sapiens, UniProt P00533); settings: Compound concentration 1000.0 nM
[30] = target: Serine/threonine-protein kinase Nek6 (Homo sapiens) (UniProt Q9HC98); settings: Compound concentration 1000.0 nM
[31] = target: Dual specificity testis-specific protein kinase 1 (Homo sapiens) (UniProt Q15569); settings: Compound concentration 1000.0 nM
[32] = target: Ephrin type-B receptor 4 (Homo sapiens) (UniProt P54760); settings: Compound concentration 1000.0 nM
[33] = target: Serine/threonine-protein kinase RIO2 (Homo sapiens) (UniProt Q9BVS4); settings: Compound concentration 1000.0 nM
Serine/threonine-protein kinase RIO2 (Homo sapiens), sequence (Q9BVS4 whole entry, looked up, canonical isoform): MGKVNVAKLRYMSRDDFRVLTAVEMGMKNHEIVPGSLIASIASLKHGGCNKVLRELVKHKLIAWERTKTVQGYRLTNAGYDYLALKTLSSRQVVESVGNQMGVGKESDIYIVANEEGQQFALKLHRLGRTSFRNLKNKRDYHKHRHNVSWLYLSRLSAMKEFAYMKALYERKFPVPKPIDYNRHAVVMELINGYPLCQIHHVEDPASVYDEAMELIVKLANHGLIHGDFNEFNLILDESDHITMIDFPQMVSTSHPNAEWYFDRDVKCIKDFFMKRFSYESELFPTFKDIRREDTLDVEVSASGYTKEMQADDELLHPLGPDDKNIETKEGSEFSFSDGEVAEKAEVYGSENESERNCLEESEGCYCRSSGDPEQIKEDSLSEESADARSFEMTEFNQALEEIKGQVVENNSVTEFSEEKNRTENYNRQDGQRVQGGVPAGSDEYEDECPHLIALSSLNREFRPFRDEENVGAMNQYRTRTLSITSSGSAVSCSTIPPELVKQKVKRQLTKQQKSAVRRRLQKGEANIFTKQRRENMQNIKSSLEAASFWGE

[34] = target: Casein kinase I isoform gamma-3 (Homo sapiens) (UniProt Q9Y6M4); settings: Compound concentration 1000.0 nM
[35] = target: Ribosomal protein S6 kinase alpha-6 (Homo sapiens) (UniProt Q9UK32); settings: Compound concentration 1000.0 nM
[36] = target: Myosin-IIIa (Homo sapiens) (UniProt Q8NEV4); settings: Compound concentration 1000.0 nM
[37] = target: Insulin-like growth factor 1 receptor (Homo sapiens) (UniProt P08069); settings: Compound concentration 1000.0 nM
[38] = target: Dual specificity protein kinase CLK2 (Homo sapiens) (UniProt P49760); settings: Compound concentration 1000.0 nM
Dual specificity protein kinase CLK2 (Homo sapiens), sequence (P49760 whole entry, looked up, the tested form may be a part): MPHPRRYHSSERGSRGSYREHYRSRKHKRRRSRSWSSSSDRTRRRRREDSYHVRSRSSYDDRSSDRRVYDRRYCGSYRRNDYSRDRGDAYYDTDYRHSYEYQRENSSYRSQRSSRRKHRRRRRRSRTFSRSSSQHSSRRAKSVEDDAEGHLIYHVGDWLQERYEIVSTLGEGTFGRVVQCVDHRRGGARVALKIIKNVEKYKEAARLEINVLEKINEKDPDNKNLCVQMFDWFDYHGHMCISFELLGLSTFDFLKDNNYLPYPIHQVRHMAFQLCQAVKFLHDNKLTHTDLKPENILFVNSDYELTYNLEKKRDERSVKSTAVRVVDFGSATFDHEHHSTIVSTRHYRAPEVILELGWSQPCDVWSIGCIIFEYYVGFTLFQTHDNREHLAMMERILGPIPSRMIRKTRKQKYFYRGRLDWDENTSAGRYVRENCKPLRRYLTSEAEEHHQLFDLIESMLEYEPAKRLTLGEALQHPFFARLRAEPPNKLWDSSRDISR

[39] = target: Phosphatidylinositol 4-phosphate 3-kinase C2 domain-containing subunit beta (Homo sapiens) (UniProt O00750); settings: Compound concentration 1000.0 nM
[40] = target: Serine/threonine-protein kinase Nek5 (Homo sapiens) (UniProt Q6P3R8); settings: Compound concentration 1000.0 nM
Serine/threonine-protein kinase Nek5 (Homo sapiens), sequence (Q6P3R8 whole entry): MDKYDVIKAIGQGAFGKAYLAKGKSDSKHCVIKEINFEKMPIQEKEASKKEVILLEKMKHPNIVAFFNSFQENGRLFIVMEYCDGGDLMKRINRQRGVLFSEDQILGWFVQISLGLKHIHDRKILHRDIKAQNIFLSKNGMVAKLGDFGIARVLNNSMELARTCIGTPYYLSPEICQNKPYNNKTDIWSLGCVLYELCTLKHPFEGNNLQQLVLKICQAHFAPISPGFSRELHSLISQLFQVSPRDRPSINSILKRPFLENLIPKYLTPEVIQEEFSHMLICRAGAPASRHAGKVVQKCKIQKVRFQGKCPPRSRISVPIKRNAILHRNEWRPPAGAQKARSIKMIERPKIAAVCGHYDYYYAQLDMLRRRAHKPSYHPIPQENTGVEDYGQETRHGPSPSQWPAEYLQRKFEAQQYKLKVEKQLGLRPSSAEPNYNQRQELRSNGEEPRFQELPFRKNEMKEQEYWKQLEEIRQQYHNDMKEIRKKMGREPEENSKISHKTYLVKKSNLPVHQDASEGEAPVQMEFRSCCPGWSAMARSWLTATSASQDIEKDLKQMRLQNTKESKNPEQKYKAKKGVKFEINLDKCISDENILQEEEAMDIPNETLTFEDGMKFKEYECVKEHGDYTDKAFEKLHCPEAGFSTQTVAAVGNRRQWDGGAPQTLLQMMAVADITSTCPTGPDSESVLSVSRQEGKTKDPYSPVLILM

[41] = target: Death-associated protein kinase 1 (Homo sapiens) (UniProt P53355); settings: Compound concentration 1000.0 nM
[42] = target: Serine/threonine-protein kinase N1 (Homo sapiens) (UniProt Q16512); settings: Compound concentration 1000.0 nM
[43] = target: Tyrosine-protein kinase SYK (Homo sapiens) (UniProt P43405); settings: Compound concentration 1000.0 nM
[44] = target: Interleukin-1 receptor-associated kinase 4 (Homo sapiens) (UniProt Q9NWZ3); settings: Compound concentration 1000.0 nM
[45] = target: Mast/stem cell growth factor receptor Kit (Homo sapiens) (UniProt P10721); settings: Compound concentration 1000.0 nM
Mast/stem cell growth factor receptor Kit (Homo sapiens), sequence (P10721 whole entry): as the sequence (P10721 whole entry V559D) above, with D559V counted along it

**Q.** `O=C(O)c1cc(-c2ccc(C3CCNCC3)cc2)c2ccc(-c3ccc(C(F)(F)F)cc3)cc2c1` [PPTN] was tested. Which residual activity [1] did it give?
**A.** 100%

**Q.** And the residual activity [2]?
**A.** 82%

**Q.** What about the residual activity [3] of the same compound?
**A.** 100%

**Q.** And the residual activity [4]?
**A.** 100%

**Q.** And the residual activity [5]?
**A.** 100%

**Q.** What about the residual activity [6] of the same compound?
**A.** 97%

**Q.** What about the residual activity [7] of the same compound?
**A.** 100%

**Q.** And the residual activity [8]?
**A.** 94%

**Q.** What about the residual activity [9] of the same compound?
**A.** 100%

**Q.** And the residual activity [10]?
**A.** 100%

**Q.** What about the residual activity [11] of the same compound?
**A.** 100%

**Q.** And the residual activity [12]?
**A.** 100%

**Q.** What about the residual activity [13] of the same compound?
**A.** 100%

**Q.** And the residual activity [14]?
**A.** 100%

**Q.** And the residual activity [15]?
**A.** 100%

**Q.** What about the residual activity [16] of the same compound?
**A.** 100%

**Q.** What about the residual activity [17] of the same compound?
**A.** 90%

**Q.** What about the residual activity [18] of the same compound?
**A.** 100%

**Q.** And the residual activity [19]?
**A.** 100%

**Q.** And the residual activity [20]?
**A.** 100%

**Q.** What about the residual activity [21] of the same compound?
**A.** 100%

**Q.** And the residual activity [22]?
**A.** 100%

**Q.** What about the residual activity [23] of the same compound?
**A.** 100%

**Q.** And the residual activity [24]?
**A.** 100%

**Q.** What about the residual activity [25] of the same compound?
**A.** 100%

**Q.** What about the Ki (D(1A) dopamine receptor) of the same compound?
**A.** 10 µM

**Q.** What about the residual activity [26] of the same compound?
**A.** 100%

**Q.** What about the residual activity [27] of the same compound?
**A.** 100%

**Q.** What about the residual activity [28] of the same compound?
**A.** 100%

**Q.** What about the residual activity [29] of the same compound?
**A.** 100%

**Q.** What about the residual activity [30] of the same compound?
**A.** 100%

**Q.** What about the residual activity [31] of the same compound?
**A.** 100%

**Q.** What about the residual activity [32] of the same compound?
**A.** 100%

**Q.** What about the residual activity [33] of the same compound?
**A.** 100%

**Q.** And the residual activity [34]?
**A.** 100%

**Q.** And the residual activity [35]?
**A.** 100%

**Q.** What about the residual activity [36] of the same compound?
**A.** 100%

**Q.** What about the residual activity [37] of the same compound?
**A.** 95%

**Q.** What about the residual activity [38] of the same compound?
**A.** 100%

**Q.** And the residual activity [39]?
**A.** 100%

**Q.** What about the residual activity [40] of the same compound?
**A.** 100%

**Q.** And the residual activity [41]?
**A.** 100%

**Q.** What about the residual activity [42] of the same compound?
**A.** 100%

**Q.** What about the residual activity [43] of the same compound?
**A.** 100%

**Q.** What about the residual activity [44] of the same compound?
**A.** 100%

**Q.** And the residual activity [45]?
**A.** 100%

**Q.** What does the source list for `Cc1c(C(=O)O)cc(-c2ccc(C3CCNCC3)cc2)c2ccc(-c3ccc(C(F)(F)F)cc3)cc12` [PPTN-NC]?
**A.** residual activity [1]: 100%; residual activity [2]: 100%; residual activity [3]: 100%; residual activity [4]: 100%; residual activity [5]: 100%; residual activity [6]: 100%; residual activity [7]: 100%; residual activity [8]: 92%; residual activity [9]: 100%; residual activity [10]: 100%; residual activity [11]: 100%; residual activity [12]: 100%; residual activity [13]: 100%; residual activity [14]: 100%; residual activity [15]: 86%; residual activity [16]: 100%; residual activity [17]: 100%; residual activity [18]: 100%; residual activity [19]: 99%; residual activity [20]: 100%; residual activity [21]: 100%; residual activity [22]: 100%; residual activity [23]: 100%; residual activity [24]: 100%; residual activity [25]: 100%; Ki (D(1A) dopamine receptor): 2.15 µM; residual activity [26]: 83%; residual activity [27]: 100%; residual activity [28]: 100%; residual activity [29]: 100%; residual activity [30]: 100%; residual activity [31]: 93%; residual activity [32]: 100%; residual activity [33]: 100%; residual activity [34]: 100%; residual activity [35]: 100%; residual activity [36]: 100%; residual activity [37]: 90%; residual activity [38]: 100%; residual activity [39]: 100%; residual activity [40]: 100%; residual activity [41]: 100%; residual activity [42]: 100%; residual activity [43]: 100%; residual activity [44]: 100%; residual activity [45]: 100%
